Ends that are not written are not given here.
Key:
HIV-1HXB2 (gp41) = details: 1HXB2 (gp41, 48 h)
HIV-1 = details: compared with wild type C37; ref KMK and MJR, manuscript in preparation; cited from earlier work
[1] = system: EnvG547D/I548T and EnvV549E; format: cell-based; details: versus wild type Env
[2] = target: fluorescein-labeled 5-Helix (Human immunodeficiency virus type 1 group M subtype B, UniProt P04578, C598G/DEL582-596/DEL601-623/N624G); format: binding, HIV-1HXB2
HIV-1HXB2 = format: cell-based; details: low (HOS-CD4-CCR5) versus high (HOS-CD4-CXCR4) CXCR4, HIV-1HXB2

Sequence | IC50 (HIV-1HXB2 (gp41)) [nM] | also measured
GGHTTDMEWDREANNYTSLIHSLIEESQNQQEKNEQELLGHHHHHH [W628D/I635A] | 97 ± 8.4 | 
GGHTTWMEWDREINKYTSLIHSLIEESQNQQEKNEQELLGHHHHHH [N637K (KYT)] | 1.65 ± 0.05 | 
GGHTTWMEWDREINNYTSLIHSLIEESQNDQEKNEQELLGHHHHHH [Variant Q652D] | 53 ± 0.98 | 
GGHTTWMEWDREINNYTSLIHSLIEEDQNQQEKNEQELLGHHHHHH [Variant S649D] | 2300 ± 170 | 
GGHTTWMEWDREINNYTSLIHSAIEESQNQQEKNEQELLGHHHHHH [Variant L645A] | 3.9 ± 0.7 | 
GGHTTWMEWDREINNYTSLIHSDIEESQNQQEKNEQELLGHHHHHH [Variant L645D] | 630 ± 120 | 
GGHTTWMEWDREINKYISLIHSLIEESQNQQEKNEQELLGHHHHHH [N637K/T639I (KYI)] | 0.96 ± 0.1 | resistance development (HIV-1): takes much longer to achieve and requires more escape mutations than resistance to wild type C37; impact of G547D/I548T and V549E substitutions on potency [1]: minimal impact; kon [2]: 2.4±0.1 x10^7 M-1s-1; τoff (time constant for dissociation) ([2]; C37 variants, reciprocal of koff): 11000 min; increase in potency on lowering CXCR4 levels (HIV-1HXB2): 3.5 fold
GGHTTWMEWDREINNYTSLDHSLIEESQNQQEKNEQELLGHHHHHH [Variant I642D] | 13000 ± 2100 | 
GGHTTWMEWDREANNYTSLIHSLIEESQNQQEKNEQELLGHHHHHH [Variant I635A] | 5.7 ± 1.6 | 
GGHTTWMEWDREINNYTSLIHSLIEESQNQQEKAEQELLGHHHHHH [Variant N656A] | 30 ± 4.2 | 
GGHTTWMEWDREINNYTSLIHSLIEEAQNQQEKNEQELLGHHHHHH [Variant S649A] | 1.6 ± 0.41 | 
GGHTTWMEWDREINNYISLIHSLIEESQNQQEKNEQELLGHHHHHH [T639I (NYI)] | 1.7 ± 0.1 | 
GGHTTWMEWDREINNYTSLAHSLIEESQNQQEKNEQELLGHHHHHH [Variant I642A] | 7 ± 1.5 | 
GGHTTWMEWDREINNYTSLIHSLIEESQNQQEKNEQALLGHHHHHH [Variant E659A] | 1.2 ± 0.13 | 
GGHTTWMEWDREDNNYTSLIHSLIEESQNQQEKNEQELLGHHHHHH [Variant I635D] | 3100 ± 350 | 
GGHTTWMEWDREINNYTSLIHSLIEESQNAQEKNEQELLGHHHHHH [Variant Q652A] | 3.5 ± 0.81 | 
GGHTTDMEWDREINNYTSLAHSLIEESQNQQEKNEQELLGHHHHHH [W628D/I642A] | 65 ± 9.8 | 
GGHTTWMEWDREINNYTSLIHSLIEESQNQQEKDEQELLGHHHHHH [Variant N656D] | 100 ± 8.9 | 

From article PMC2776349, “Asymmetric Deactivation of HIV-1 gp41 following Fusion Inhibitor Binding” (PLoS Pathogens, 2009)
